Measured values as given in paper PMC5054527, “Mechanism of high affinity inhibition of the human urate transporter URAT1” (Scientific Reports, 2016).
Residue numbers refer to the chain shown, from its start. Like-named read-outs stand apart in the source and are kept apart here.

Legend:
Experiment in all cases: URAT1 uric acid transport activity assay
Type in all cases: cell-based
[1] = target: T1, r-T32C rURAT1 point mutant (Rattus norvegicus, UniProt Q3ZAV1, T32C)
T1 sequence (Q3ZAV1 1-553 T32C): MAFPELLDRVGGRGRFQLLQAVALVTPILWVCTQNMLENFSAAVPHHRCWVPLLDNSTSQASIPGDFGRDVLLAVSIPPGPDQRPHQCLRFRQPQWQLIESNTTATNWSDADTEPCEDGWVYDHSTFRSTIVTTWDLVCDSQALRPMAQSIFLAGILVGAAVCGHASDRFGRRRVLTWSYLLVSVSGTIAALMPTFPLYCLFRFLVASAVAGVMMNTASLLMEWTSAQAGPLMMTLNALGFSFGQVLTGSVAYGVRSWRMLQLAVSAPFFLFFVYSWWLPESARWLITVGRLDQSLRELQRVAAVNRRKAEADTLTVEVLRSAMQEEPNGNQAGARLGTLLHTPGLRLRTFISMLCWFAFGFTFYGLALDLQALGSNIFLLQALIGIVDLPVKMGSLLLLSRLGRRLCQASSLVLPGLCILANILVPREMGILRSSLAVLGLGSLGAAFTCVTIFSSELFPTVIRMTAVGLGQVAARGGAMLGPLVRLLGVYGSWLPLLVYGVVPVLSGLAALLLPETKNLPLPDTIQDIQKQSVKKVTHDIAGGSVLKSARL
Source text: (§1) hURAT1 (GenBank BC053348.1) and rURAT1 (NCBI NM_001034943.1) genes were purchased from Origene Technologies, Inc. and subcloned into pCMV6/neo using NotI, creating pCMV6/neo-hURAT1 and pCMV6/neo-rURAT1. Mutants were produced by polymerase chain reaction (PCR) or site-directed mutagenesis using the QuikChange Lightning Multi Site-Directed Mutagenesis Kit (Agilent Technologies). […] Detailed methods are provided in Supplementary Methods, and primers are listed in Supplementary Table 1. […] Residues in rURAT1 and hOAT1 that correspond to the residues in hURAT1 were identified from aligned protein sequences (Supplementary Fig. 1)[50].
(§2) DNA (10 μg) was mixed with 30 μl of DreamFect Gold (Boca Scientific) in 2 ml OptiMem (Life Technologies). After 20 minutes, 18 ml of media containing 2 × 10^7 cells in suspension was added and mixed, and 200 μl per well were plated onto white clear-bottomed poly-D-lysine coated 96-well plates (BD Biosciences). The cells were assayed the following day.
(§3) Compounds were serially diluted into assay buffer and added to the cells for 5 minutes prior to addition of radiolabelled uric acid substrate. URAT1-expressing cells were incubated with 100 μM ^14C-uric acid for 10 minutes. […] Each treatment was measured in triplicate.
(§4) Unlabelled uric acid was prepared at a 20 mM stock just prior to use in a solution containing 20 mM dibasic potassium phosphate and 20 mM potassium hydroxide.
(§5) Nonlinear regression analyses using GraphPad Prism software were used to calculate the potency of URAT1 inhibitors (IC50 values) from log (inhibitor) versus response - variable slope (four parameters) equations. Statistical significance was assessed using Student’s unpaired t-tests.

[2] = target: T2, r-V474M rURAT1 point mutant (Rattus norvegicus, UniProt Q3ZAV1, V474M)
T2 construct: expressed in transfected cells; host or cells: HEK-293T
T2 sequence (Q3ZAV1 1-553 V474M): T1 sequence (Q3ZAV1 1-553 T32C) with C32T, V474M
Source text: as §1, §2, §3, §4, §5

[3] = target: T3, r-Y365F rURAT1 point mutant (Rattus norvegicus, UniProt Q3ZAV1, Y365F); conditions: for fold increased affinity of r-Y365F compared to rURAT1: from IC50 values
T3 sequence (Q3ZAV1 1-553 Y365F): T1 sequence (Q3ZAV1 1-553 T32C) with C32T, Y365F
Source text: as §1, §2, §3, §4, §5

[4] = r-Y365F, MES pH 5.5, 100 μM 14C-uric acid, read-out: IC50 (uric acid transport)

O=C1C(CC[S+]([O-])c2ccccc2)C(=O)N(c2ccccc2)N1c1ccccc1 (stereo not drawn) [sulfinpyrazone]
IC50 ([1]; r-T32C, HEPES pH 7.3, 100 μM 14C-uric acid, read-out: IC50 (uric acid transport)): 691 ± 98 µM
IC50 ([2]; r-V474M, HEPES pH 7.3, 100 μM 14C-uric acid, read-out: IC50 (uric acid transport)): 732 ± 102 µM
fold increased affinity of r-Y365F compared to rURAT1 [3]: 2.7 fold
IC50 ([3]; r-Y365F, HEPES pH 7.3, 100 μM 14C-uric acid, read-out: IC50 (uric acid transport)): 255 ± 27 µM

O=c1[nH]c(=O)c2[nH]c(=O)[nH]c2[nH]1 [uric acid]
fold increased affinity of r-Y365F compared to rURAT1 [3]: 1.6 fold
IC50 [3, 4]: 1640 µM

O=C(O)CSc1nnc(Br)n1-c1ccc(C2CC2)c2ccccc12 [lesinurad, 2-((5-bromo-4-(4-cyclopropylnaphthalen-1-yl)-4H-1,2,4-triazol-3-yl)thio)acetic acid]
IC50 ([1]; r-T32C, MES pH 5.5, 100 μM 14C-uric acid, read-out: IC50 (uric acid transport)): 73 ± 5.9 µM
IC50 ([2]; r-V474M, MES pH 5.5, 100 μM 14C-uric acid, read-out: IC50 (uric acid transport)): 84 ± 3.2 µM
IC50 [3, 4]: 15 ± 3 µM

CCc1oc2ccccc2c1C(=O)c1cc(Br)c(O)c(Br)c1 [benzbromarone]
IC50 [1]: 24 ± 4 µM
IC50 [2]: 17 ± 2.2 µM
IC50 [3]: 9.4 ± 1.6 µM
